Measured values as given in patent US20220242851A1, “CRYSTAL FORM AND SALT OF QUINAZOLINE COMPOUND AND PREPARATION METHOD THEREOF” (SHENZHEN JINRUI FOUNDATION BIOTECH CO., LTD, priority 2019, published 2022).

Tested on: NCI-N87 cell
Test: Inhibition of cell proliferation, Cell-Titer-Glo, NCI-N87
Format: cell-based, human
Conditions: conclusion
From the text: Purpose of the assay: the inhibitory activity of the assay compounds on cell proliferation was detected. Principle of the assay: the luciferase in a Cell-Titer-Glo reagent produces oxidized luciferin with luciferin, oxygen and ATP as reaction substrates, and releases energy in the form of light. Since the luciferase reaction requires ATP, the total amount of light generated by the reaction is proportional to the total amount of ATP that reflects cell viability. Cell line: NCI-N87 cell line (ATCC-CRL-5822), BT-474 cell line (ATCC-HTB-20), OE21 (ECACC-96062201) Cell culture medium: […] L-[…]×, Gibco#25030-081; penicillin-streptomycin Hyclone# SV30010) Cell Titer-Glo® cell viability assay kit with luminescence (Promega #G7573) 384-well cell culture plate (Greiner # 781090) Compound plate (LABCYTE # LP-0200) CO2 incubator (Thermo#371) Vi-cell cell counter (Beckman Coulter) According to the schematic diagram of the cell seed plate, cells were seeded in a 384- or 96-well plate at a density of 1000 cells per well and 25 μL per well, and 25 μL of PBS was added to the wells near edge of the place where no cells were seeded. (1) The stock solution of the compounds has a concentration of 10 mM, and the compounds were diluted with DMSO to an initial concentration of 4 mM. […] After 10 minutes, the plate was read on PerkinElmer Envision, and the […] reading time was set to 0.2 second.

With `C=CC(=O)N1[C@@H]2CC[C@H]1C[C@H](Nc1cc3c(Nc4ccc(Cl)c(Cl)c4F)ncnc3cc1OC)C2` [Compound of formula (I)] the “inhibitory activity on the proliferation of NCI-N87 cells (in words)” value was “significant inhibitory activity”.
